One data set relates to anesthetized guinea-pig. Put plainly: inotropic effect and lethal dose in anesthetized guinea-pig (infusion over 90 minutes). It is filed as in vivo. The conditions noted are these: for Dead/treated / ED80 (inotropic potency, dose increasing +dP/dTmax by 80%) / EDmax (dose inducing maximum positive inotropic effect) / Emax % increase in +dP/dTmax (maximum increase in contractile force) / Maximum dose infused: anesthetized guinea-pig, infusion over 90 min; for Lethal dose/ED80: calculated in the died animals. How it is done: The inotropic activity is shown as maximum increase in contractile force (Emax measured as +dP/dTmax), dose inducing maximum positive inotropic effect (EDmax), inotropic potency (ED80, dose increasing +dP/dTmax by 80%); the toxicity as the ratio between lethal dose and inotropic potency (calculated in the died animals). All animals, previously anesthetized, were administered the drug through infusion over a 90 minute period.

The target in data set [1] is Dog Kidney Na+, K+-ATPase (Canis lupus familiaris, UniProt P50997). Put plainly: Dog kidney Na+,K+-ATPase inhibition (hydrolysis of 32P-ATP). The format is biochemical.
The mark [2] stands for this setting: dog kidney enzyme, read-out: Na+, K+-ATPase Inhibition IC50.

This is an account of results in patent publication US8664210B2, “Aminooxime derivatives of 2- and/or 4-substituted androstanes and androstenes as medicaments for cardiovascular disorders” (priority 2007, dated 2014).

Usually IC50 stands for the concentration needed to halve the response being measured.

Structures can show the parent of a compound that is named as a salt. Where two headings read alike, the source gives them in different places.

`C[C@H]1O[C@@H](O[C@H]2[C@@H](O)C[C@H](O[C@H]3[C@@H](O)C[C@H](O[C@H]4CC[C@@]5(C)[C@H](CC[C@@H]6[C@@H]5C[C@@H](O)[C@]5(C)[C@@H](C7=CC(=O)OC7)CC[C@]65O)C4)O[C@@H]3C)O[C@@H]2C)C[C@H](O)[C@@H]1O` [Digoxin, digoxin]: in the data set with anesthetized guinea-pig, the Dead/treated is recorded as 10/10; the “ED80 (inotropic potency, dose increasing +dP/dTmax by 80%)” value was 0.29 µmol/kg; the “EDmax (dose inducing maximum positive inotropic effect)” value (shortened to “EDmax”) stood at 0.65 µmol/kg; the “Emax % increase in +dP/dTmax (maximum increase in contractile force)” value (shortened to “Emax % increase in +dP/dTmax”) is listed as 158%. In the data set on anesthetized guinea-pig, the Maximum dose infused came out at 1.16 µmol/kg and the “Lethal dose/ED80” value was 4.0. In the case of `CC1=C2CC[C@H]3[C@@H]4CC[C@H](O)[C@@]4(C)CC[C@@H]3[C@@]2(C)CC/C1=N\OCCN` [I-aa, (E)-3-(2-Aminoethoxyimino)-4-methylandrost-4-en-17β-ol hydrochloride], the IC50 in data set [1] is 4.9 µM. Compound `CC1(C)/C(=N/OCCN)CC[C@@]2(C)C1CC[C@H]1[C@@H]3CC[C@H](O)[C@@]3(C)CC[C@@H]12` (stereo partly drawn) [I-ag, (E)-3-(2-Aminoethoxyimino)-4,4-dimethylandrostan-17β-ol fumarate] displayed an IC50 in data set [1] of 3.9 µM. Consider `CC1(C)/C(=N/OCCCN)CC[C@@]2(C)C1CC[C@H]1[C@@H]3CC[C@H](O)[C@@]3(C)CC[C@@H]12` (stereo partly drawn) [I-ai, (E)-3-(3-Aminopropoxyimino)-4,4-dimethylandrostan-17β-ol fumarate], for which the IC50 in data set [1] turned out to be 1.9 µM.

`CNCCCON=C1CCC2(C)C3CCC4(C)C(O)CCC4C3CCC2C1(C)C` (stereo not drawn) [I-aj, (E)-3-(3-N-Methylaminopropoxyimino)-4,4-dimethylandrostan-17β-ol fumarate] returned an IC50 in data set [1] of 1.4 µM. As to `CC1(C)/C(=N/O[C@@H]2CCNC2)CC[C@@]2(C)C1CC[C@H]1[C@@H]3CC[C@H](O)[C@@]3(C)CC[C@@H]12` (stereo partly drawn) [I-ak, (E)-3-[3-(R)-Pyrrolidinyl]oxyimino-4,4-dimethylandrostan-17β-ol fumarate], it took 2 µM to reach half-maximal inhibition in data set [1] (IC50). Regarding `CC1(C)/C(=N/O[C@H]2CCNC2)CC[C@@]2(C)C1CC[C@H]1[C@@H]3CC[C@H](O)[C@@]3(C)CC[C@@H]12` (stereo partly drawn) [I-al, (E)-3-[3-(S)-Pyrrolidinyl]oxyimino-4,4-dimethylandrostan-17β-ol fumarate], in data set [1], the IC50 amounted to 2.6 µM.

Take `CC1(C)/C(=N/OCCN)CC[C@@]2(C)C1CC[C@@H]1[C@@H]2CC[C@]2(C)C(=O)CC[C@@H]12` (some centres unmarked) [I-am, (E)-3-(2-Aminoethoxyimino)-4,4-dimethylandrostan-17-one fumarate]: in data set [1], the IC50 came to 1.7 µM. On the same count and under the same terms, next, `CC1(C)/C(=N/OCCCN)CC[C@@]2(C)C1CC[C@@H]1[C@@H]2CC[C@]2(C)C(=O)CC[C@@H]12` (some centres unmarked) [I-an, (E)-3-(3-Aminopropoxyimino)-4,4-dimethylandrostan-17-one fumarate]: 1.5 µM. In the case of `CC1(C)/C(=N/O[C@@H]2CCNC2)CC[C@@]2(C)C1CC[C@@H]1[C@@H]2CC[C@]2(C)C(=O)CC[C@@H]12` (stereo partly drawn) [I-ao, (E)-3-[3-(R)-Pyrrolidinyl]oxyimino-4,4-dimethylandrostan-17-one fumarate], the IC50 in data set [1] was 1.3 µM.

For `CC1(C)/C(=N/OCCN)CC[C@@]2(C)C1C(=O)C[C@@H]1[C@@H]2CC[C@]2(C)C(=O)CC[C@@H]12` (some centres unmarked) [I-at, (E)-3-(2-Aminoethoxyimino)-4,4-dimethylandrostan-6,17-dione fumarate], it took 1.7 µM to reach half-maximal inhibition in data set [1] (IC50). As to `CC1(C)/C(=N/O[C@@H]2CCNC2)CC[C@]2(C)[C@H]3CC[C@]4(C)C(=O)CC[C@H]4[C@@H]3CC(=O)[C@@]12O` [I-au, (E)-3-[3-(R)-Pyrrolidinyl]oxyimino-4,4-dimethyl-5α-hydroxyandrostan-6,17-dione fumarate], in data set [1], inhibition was half-maximal at 2.2 µM (IC50). On to `C[C@]12CC[C@H]3[C@@H](CC=C4C5(CC5)/C(=N/OCCN)CC[C@@]43C)[C@@H]1CC[C@@H]2O` [I-bb, (E)-3-(2-Aminoethoxyimino)-4-(spirocyclopropane)-5-androsten-17β-ol fumarate], for which the half-inhibitory concentration (IC50) in data set [1] (setting [2]) came out at 1.5 µM.

For the compound `C[C@]12CC[C@H]3[C@@H](CC=C4C5(CC5)/C(=N/O[C@@H]5CCNC5)CC[C@@]43C)[C@@H]1CC[C@@H]2O` [I-bc, (E)-3-[3-(R)-Pyrrolidinyl]oxyimino-4-spirocyclopropane androst-5-en-17β-ol fumarate], in data set [1] (setting [2]), the 50% inhibitory concentration (IC50) worked out at 1.8 µM. Compound `CC[C@H]1/C(=N/OCCN)CC[C@@]2(C)C1C(=O)C[C@@H]1[C@@H]2CC[C@]2(C)C(=O)CC[C@@H]12` (stereo partly drawn) [I-bd, (E)-3-(2-Aminoethoxyimino)-4β-ethylandrostan-6,17-dione hydrochloride] came in with an IC50 in data set [1] of 0.13 µM. `CC[C@H]1/C(=N/O[C@@H]2CCNC2)CC[C@@]2(C)C1C(=O)C[C@@H]1[C@@H]2CC[C@]2(C)C(=O)CC[C@@H]12.Cl` (stereo partly drawn) [I-be, (E)-3-[3-(R)-Pyrrolidinyl]oxyimino-4β-ethylandrostan-6,17-dione hydrochloride] yielded an IC50 in data set [1] of 0.049 µM. In addition, in the data set with anesthetized guinea-pig, the Dead/treated is 3/3; the “ED80 (inotropic potency, dose increasing +dP/dTmax by 80%)” value is 1.40 µmol/kg; the “EDmax” value was found to be 2.81 µmol/kg; the “Emax % increase in +dP/dTmax” value turned out to be 179%. In the data set on anesthetized guinea-pig, the Maximum dose infused is 12.6 µmol/kg and the “Lethal dose/ED80” value is on record as 7.8.

Regarding `C[C@]12CC[C@H]3[C@@H](CCC4C/C(=N\OCCN)[C@H](F)C[C@@]43C)[C@@H]1CC[C@@H]2O` (stereo partly drawn) [I-bf, (E)-3-(2-Aminoethoxyimino)-2α-fluoroandrostan-17β-ol fumarate], the IC50 in data set [1] was 2.4 µM. In the case of `C[C@]12CC[C@H]3[C@@H](CCC4C/C(=N\O[C@@H]5CCNC5)[C@H](F)C[C@@]43C)[C@@H]1CC[C@@H]2O` (stereo partly drawn) [I-bg, (E)-3-[3-(R)-Pyrrolidinyl]oxyimino-2α-fluoroandrostan-17β-ol fumarate], 0.84 µM corresponded to half-maximal inhibition in data set [1] (IC50).

Compound `C[C@]12C[C@@H](F)/C(=N/O[C@@H]3CCNC3)CC1CC[C@@H]1[C@@H]2CC[C@]2(C)C(=O)CC[C@@H]12.Cl` (stereo partly drawn) [I-bh, (E)-3-[3-(R)-Pyrrolidinyl]oxyimino-2α-fluoroandrostan-17-one hydrochloride] gave an IC50 in data set [1] of 1.1 µM. Moreover, in the data set on anesthetized guinea-pig, the Dead/treated is given as 2/2; the “ED80 (inotropic potency, dose increasing +dP/dTmax by 80%)” value came out at 7.00 µmol/kg; the “EDmax” value stood at 14.0 µmol/kg; the “Emax % increase in +dP/dTmax” value is 210%. For the same compound, in the data set on anesthetized guinea-pig, the Maximum dose infused stood at 100.8 µmol/kg and the “Lethal dose/ED80” value is 7.5. Regarding `C[C@]12CC[C@H]3[C@@H](CC(=O)C4C/C(=N\O[C@@H]5CCNC5)[C@H](F)C[C@@]43C)[C@@H]1CC[C@@H]2O` (stereo partly drawn) [I-bi, (E)-3-[3-(R)-Pyrrolidinyl]oxyimino-2α-fluoro-17β-hydroxyandrostan-6-one fumarate], it took 1.3 µM to reach half-maximal inhibition in data set [1] (IC50). For the compound `CO/N=C1\C[C@H]2[C@@H]3CC[C@H](O)[C@@]3(C)CC[C@@H]2[C@@]2(C)C[C@@H](F)/C(=N/O[C@@H]3CCNC3)CC12` (stereo partly drawn) [I-bk, (E)-3-[3-(R)-Pyrrolidinyl]oxyimino-2α-fluoro-6-(E)-methoxyiminoandrostan-17β-ol fumarate], the IC50 in data set [1] (setting [2]) came out at 1.9 µM. In data set [1], `C[C@]12CC/C(=N\O[C@@H]3CCNC3)[C@@H](F)C1CC[C@@H]1[C@@H]2CC[C@]2(C)C(=O)CC[C@@H]12` (stereo partly drawn) [I-bl, (E)-3-[3-(R)-Pyrrolidinyl]oxyimino-4α-fluoroandrostan-17-one fumarate] showed an IC50 of 0.55 µM. On to `C[C@]12CC/C(=N\O[C@@H]3CCNC3)[C@@H](O)C1CC[C@@H]1[C@@H]2CC[C@]2(C)C(=O)CC[C@@H]12` (stereo partly drawn) [I-bn, (E)-3-[3-(R)-Pyrrolidinyl]oxyimino-4α-hydroxyandrostan-17-one fumarate], for which, in data set [1], the half-maximal inhibitory concentration (IC50) was 2.7 µM. Consider `C[C@]12CC/C(=N\O[C@@H]3CCNC3)C3(CC3)C1=CC[C@@H]1[C@@H]2CC[C@]2(C)C(=O)CC[C@@H]12` [I-bo, (E)-3-[(3-(R)-Pyrrolidinyl)oxyimino]-4-spirocyclopropane-5-androsten-17-one fumarate], for which the IC50 in data set [1] (setting [2]) was found to be 0.69 µM. As to `CC12CCC3C(CCC4C5(CCCC5)C(=NOC5CCNC5)CCC34C)C1CCC2O` [I-bq, (E)-3-[(3-(R)-Pyrrolidinyl)oxyimino]-4-spirocyclopentaneandrostan-17β-ol fumarate], in data set [1] (setting [2]), the IC50 came out at 3.1 µM.

Turning to `CC12CCC3C(C(O)CC4C5(CCCC5)C(=NOC5CCNC5)CCC34C)C1CCC2O` [I-bs, (E)-3-[(3-(R)-Pyrrolidinyl)oxyimino]-4-spirocyclopentaneandrostan-7α,17β-diol fumarate], in data set [1] (setting [2]), the IC50 was found to be 1.1 µM.

Turning to `CC(C)C1=C2CC[C@H]3[C@@H]4CC[C@H](O)[C@@]4(C)CC[C@@H]3[C@@]2(C)CC/C1=N\O[C@@H]1CCNC1` [I-bv, fumarate], the concentration for half-maximal inhibition (IC50) in data set [1] (setting [2]) was found to be 3.9 µM.

In data set [1], `CC[C@@H]1/C(=N/O[C@@H]2CCNC2)CC[C@@]2(C)C1CC[C@H]1[C@@H]3CC[C@H](O)[C@@]3(C)CC[C@@H]12` (stereo partly drawn) [I-bw, (E)-3-[(3-(R)-Pyrrolidinyl)oxyimino]-4α-ethylandrostan-17β-ol fumarate] gave an IC50 of 1.8 µM. In turn, `CC[C@H]1/C(=N/O[C@@H]2CCNC2)CC[C@@]2(C)C1[C@@H](O)C[C@@H]1[C@@H]2CC[C@]2(C)C(=O)CC[C@@H]12` (stereo partly drawn) [I-bx, (E)-3-[3-(R)-Pyrrolidinyl]oxyimino-4β-ethyl-6α-hydroxyandrostan-17-one hydrochloride] registered an IC50 in data set [1] of 0.065 µM.

Compound `CC1(C)/C(=N/O[C@@H]2CCNC2)CC[C@]2(C)[C@H]3CC[C@]4(C)[C@@H](O)CC[C@H]4[C@@H]3CC[C@@]12O` [I-by, (E)-3-[3-(R)-Pyrrolidinyl]oxyimino-4,4-dimethylandrostan-5α,17β-diol hydrochloride] showed an IC50 in data set [1] of 2.2 µM.
